Measured values taken from patent US6071884A, “Pharmaceutical compositions and therapeutic methods” (Kirin Beer Kabushiki Kaisha, priority 1992, dated 2000).

Columns and labels:
blood platelets [1] = assay: Blood-platelet-increasing effect upon normal mouse; assay type: in vivo, mouse (BDF1); conditions: normal mice; 6 days after 0.1 mg/kg i.v.; mean ± SD; vehicle per series 58.2, 63.0, 71.1
How it was run: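 Female BDF1 mice, 6 weeks old (5 per group), received test sample at 0.1 mg/kg into the caudal vein. Six days later, fundus-vein blood was taken and platelets counted on a multi-channel hemocytometer, compared against vehicle-treated animals.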

blood platelets [2] = assay: Blood-platelet-increasing effect upon monkey; assay type: in vivo, croo monkey; conditions: for Number of Blood Platelets: mean ± SD
Experimental: Subsequently, in order to examine the effect on Primates, the effect of Compound 33 was examined as a representative of the compounds represented by the formula (A), by using normal croo monkeys.
(§1) Pharmacological Test 7: Blood-Platelet-Increasing Effect upon Monkey
(§2) Six croo monkeys (female, 3 to 5 years old, 2.3 to 2.8 kg), 2 monkeys in one group were used. A vehicle, 0.1 mg/body of the compound 33 or 1 mg/body of the compound 33 was intravenously administered to the monkeys. 6 and 9 days after the administration, blood was collected by using a blood-collecting tube EDTA-2K, and the numbers of blood platelets, white blood cells and red blood cells contained in the peripheral blood were measured by using an E-2500/cs. The results are shown in Tables 7-1, 7-2 and 7-3, respectively.

[3] = test system: marrow cells (mononuclear cell fraction); assay: Proliferation-stimulating effect on marrow cell of mouse (3H-TdR uptake); assay type: cell-based, mouse (BALB/c); conditions: percentage of control, 72 h
How it was run: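 Mononuclear marrow cell fraction from 7-week-old female BALB/c mouse thigh bone, 1.5×10^6 cells/ml in 10% FCS RPMI 1640, cultured with test sample 72 h at 37° C. ³H-thymidine (0.5 μCi/well) then added for 8 h; nuclear ³H-TdR uptake counted by liquid scintillation.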

red blood cells = assay: Red blood cell count in monkey; assay type: in vivo, croo monkey; conditions: for Number of Red Blood Cells: mean ± SD
Experimental: as §1, §2

Compound: CCCCCCCCCCCCCCCCCCCCCCCCCC(=O)N[C@@H](CO[C@H]1O[C@H](CO)[C@H](O)[C@H](O)[C@H]1O)[C@H](O)[C@H](O)CCCCCCCCCCCCCC [Compound 33, (2S,3S,4R)-1-(α-D-galactopyranosyloxy)-2-hexacosanoylamino-3,4-octadecanediol]
- Number of Blood Platelets (blood platelets [1]): 142.3 ± 10.2 × 10^4 /μl
- Number of Blood Platelets (blood platelets [2]; 0.1 mg/body i.v., after 6 days, vehicle 37.8 ± 8.5): 56.4 ± 5.2 × 10^4 /μl
- Number of Blood Platelets (blood platelets [2]; 0.1 mg/body i.v., after 9 days, vehicle 37.4 ± 12.4): 52.4 ± 9.0 × 10^4 /μl
- blood-platelet-increasing effect (in words) (blood platelets [2]; 0.1 mg/body, almost equal to 1 mg/body): remarkable blood-platelet-increasing effect
- Number of Blood Platelets (blood platelets [2]; 1 mg/body i.v., after 6 days, vehicle 37.8 ± 8.5): 62.1 ± 15.9 × 10^4 /μl
- Number of Blood Platelets (blood platelets [2]; 1 mg/body i.v., after 9 days, vehicle 37.4 ± 12.4): 64.7 ± 23.7 × 10^4 /μl
- activity at 0.1 µg/mL ([3]; 10^-1 μg/ml): 460%
- activity at 0.01 µg/mL ([3]; 10^-2 μg/ml): 330%
- activity at 0.001 µg/mL ([3]; 10^-3 μg/ml): 175%
- Number of Red Blood Cells (red blood cells; 0.1 mg/body i.v., after 6 days, vehicle 516 ± 6): 498 ± 18 × 10^4 /μl
- Number of Red Blood Cells (red blood cells; 0.1 mg/body i.v., after 9 days, vehicle 506 ± 1): 538 ± 2 × 10^4 /μl
- red-blood-cell-increasing effect (in words) (red blood cells; 0.1 mg/body, 9 days after administration): red-blood-cell-increasing effect was clearly found
- Number of Red Blood Cells (red blood cells; 1 mg/body i.v., after 6 days, vehicle 516 ± 6): 569 ± 40 × 10^4 /μl
- Number of Red Blood Cells (red blood cells; 1 mg/body i.v., after 9 days, vehicle 506 ± 1): 574 ± 37 × 10^4 /μl
